# Results reported in ChEMBL document CHEMBL4177611, “Discovery of aminocyclohexene analogues as selective and orally bioavailable hNav1.7 inhibitors for analgesia” (Bioorg Med Chem Lett, 2017).
# Active and inactive are the calls of the source.
# Experiments:
# [1] = target: Sodium channel protein type 9 subunit alpha (Homo sapiens, UniProt Q15858); assay: Inhibition of human Nav1.7 expressed in CHO-K1 cells at -120 mV holding potential incubated over 5 mins measured at 15 secs interval by Qpatch clamp assay; type: cell-based
# Cytochrome P450 1A2 = target: T1, Cytochrome P450 1A2 (Homo sapiens, UniProt P05177)
# T1 sequence (P05177 whole entry): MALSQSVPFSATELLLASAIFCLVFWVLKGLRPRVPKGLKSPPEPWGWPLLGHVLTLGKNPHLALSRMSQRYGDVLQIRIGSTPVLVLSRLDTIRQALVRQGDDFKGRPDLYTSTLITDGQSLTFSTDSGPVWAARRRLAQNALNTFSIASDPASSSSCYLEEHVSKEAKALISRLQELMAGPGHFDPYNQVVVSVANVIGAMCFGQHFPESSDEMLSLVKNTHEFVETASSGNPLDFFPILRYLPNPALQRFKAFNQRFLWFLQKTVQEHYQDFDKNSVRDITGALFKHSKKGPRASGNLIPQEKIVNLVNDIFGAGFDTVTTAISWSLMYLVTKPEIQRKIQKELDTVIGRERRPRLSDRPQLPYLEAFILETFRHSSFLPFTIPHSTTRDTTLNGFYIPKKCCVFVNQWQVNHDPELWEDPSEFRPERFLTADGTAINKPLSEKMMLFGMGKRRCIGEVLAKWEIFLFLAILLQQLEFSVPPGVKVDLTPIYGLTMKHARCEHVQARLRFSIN
# [2] = Volume of distribution at steady state in Sprague-Dawley rat administered as single iv bolus by LC-MS/MS analysis; type: ADME, organism-based; conditions: in vivo, read-out: Vdss
# [3] = Clearance in Sprague-Dawley rat administered as single iv bolus by LC-MS/MS analysis; type: ADME, organism-based; conditions: in vivo
# Cytochrome P450 3A4 = Cytochrome P450 3A4 (Homo sapiens, UniProt P08684)
# Cytochrome P450 2C19 = Cytochrome P450 2C19 (Homo sapiens, UniProt P33261)
# [4] = Oral bioavailability in Sprague-Dawley rat at 10 mg/kg administered as single dose via gavage by LC-MS/MS analysis; type: ADME, organism-based; conditions: in vivo
# [5] = AUC in Sprague-Dawley rat at 10 mg/kg administered as single dose via oral gavage by LC-MS/MS analysis; type: ADME, organism-based; conditions: in vivo
# Cytochrome P450 2C9 = Cytochrome P450 2C9 (Homo sapiens, UniProt P11712)
# Cytochrome P450 2D6 = Cytochrome P450 2D6 (Homo sapiens, UniProt P10635)
# in vitro [6] = conditions: human, Caco-2
# [7] = Ratio of total drug level in iv dosed rat brain to plasma measured 2 hrs post dose; type: ADME, organism-based; conditions: read-out: BPR
# in vitro [8] = conditions: human, Caco-2; remark: listed apart in the source
# [9] = Oral bioavailability in Sprague-Dawley rat at 2 mg/kg administered as single dose via gavage by LC-MS/MS analysis; type: ADME, organism-based; conditions: in vivo
# [10] = AUC in Sprague-Dawley rat at 2 mg/kg administered as single dose via oral gavage by LC-MS/MS analysis; type: ADME, organism-based; conditions: in vivo
# Homo sapiens [11] = species on record: Homo sapiens; assay: Selectivity ratio of IC50 for human Nav1.4 to IC50 for human Nav1.7 expressed in CHO-K1 cells; type: cell-based
# Rattus norvegicus [12] = assay: Antinociceptive activity in Sprague-Dawley rat formalin-induced nociception model assessed as inhibition of formalin-induced flinches in phase 2 at 30 mg/kg, po administered via oral gavage 60 mins before formalin challenge measured for 1 hr post dose; type: functional, organism-based
# Rattus norvegicus [13] = assay: Antinociceptive activity in Sprague-Dawley rat formalin-induced nociception model assessed as inhibition of formalin-induced flinches in phase 1 at 30 mg/kg, po administered via oral gavage 60 mins before formalin challenge measured for 1 hr post dose; type: functional, organism-based
# Rattus norvegicus [14] = assay: Antiallodynic activity in Sprague-Dawley rat spinal nerve ligation model assessed as reduction in mechanical allodynia by measuring paw withdrawal threshold at 100 mg/kg, po measured at 1 to 2 hrs post dose; type: functional, organism-based
# Homo sapiens [15] = species on record: Homo sapiens; assay: Selectivity ratio of IC50 for human Nav1.5 expressed in HEK293 cells to IC50 for human Nav1.7 expressed in CHO-K1 cells; type: cell-based
# Rattus norvegicus [16] = assay: Antiallodynic activity in Sprague-Dawley rat spinal nerve ligation model assessed as reduction in mechanical allodynia by measuring paw withdrawal threshold at 30 mg/kg, po measured at 1 to 2 hrs post dose; type: functional, organism-based
# Cytochrome P450 3A4, sequence (P08684 whole entry): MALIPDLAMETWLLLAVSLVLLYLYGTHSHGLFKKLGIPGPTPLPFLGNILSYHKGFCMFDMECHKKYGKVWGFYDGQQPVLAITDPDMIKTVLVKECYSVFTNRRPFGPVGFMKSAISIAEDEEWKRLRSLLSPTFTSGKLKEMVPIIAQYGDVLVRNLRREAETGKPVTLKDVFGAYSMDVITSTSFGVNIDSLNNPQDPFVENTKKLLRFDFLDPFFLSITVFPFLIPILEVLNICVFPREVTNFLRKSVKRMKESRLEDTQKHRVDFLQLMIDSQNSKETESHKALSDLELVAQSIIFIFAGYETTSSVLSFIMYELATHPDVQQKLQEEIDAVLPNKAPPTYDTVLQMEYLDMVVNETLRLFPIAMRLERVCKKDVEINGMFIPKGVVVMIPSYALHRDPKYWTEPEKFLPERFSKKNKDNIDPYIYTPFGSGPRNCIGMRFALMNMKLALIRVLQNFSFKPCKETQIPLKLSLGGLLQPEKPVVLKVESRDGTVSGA
# Cytochrome P450 2D6, sequence (P10635 whole entry): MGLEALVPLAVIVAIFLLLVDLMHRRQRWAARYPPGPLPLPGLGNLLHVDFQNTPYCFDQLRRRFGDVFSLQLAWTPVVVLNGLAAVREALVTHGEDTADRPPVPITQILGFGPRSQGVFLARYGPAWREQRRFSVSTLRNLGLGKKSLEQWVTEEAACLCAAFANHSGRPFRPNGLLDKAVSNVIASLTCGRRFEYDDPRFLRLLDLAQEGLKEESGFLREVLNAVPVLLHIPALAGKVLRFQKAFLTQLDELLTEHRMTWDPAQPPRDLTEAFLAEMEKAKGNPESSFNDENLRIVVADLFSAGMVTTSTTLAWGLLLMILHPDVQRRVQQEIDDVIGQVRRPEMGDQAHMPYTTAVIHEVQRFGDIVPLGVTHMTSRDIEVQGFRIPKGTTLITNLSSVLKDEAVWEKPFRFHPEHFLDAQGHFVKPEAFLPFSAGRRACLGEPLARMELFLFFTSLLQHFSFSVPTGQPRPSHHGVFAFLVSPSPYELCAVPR
# Cytochrome P450 2C9, sequence (P11712 whole entry): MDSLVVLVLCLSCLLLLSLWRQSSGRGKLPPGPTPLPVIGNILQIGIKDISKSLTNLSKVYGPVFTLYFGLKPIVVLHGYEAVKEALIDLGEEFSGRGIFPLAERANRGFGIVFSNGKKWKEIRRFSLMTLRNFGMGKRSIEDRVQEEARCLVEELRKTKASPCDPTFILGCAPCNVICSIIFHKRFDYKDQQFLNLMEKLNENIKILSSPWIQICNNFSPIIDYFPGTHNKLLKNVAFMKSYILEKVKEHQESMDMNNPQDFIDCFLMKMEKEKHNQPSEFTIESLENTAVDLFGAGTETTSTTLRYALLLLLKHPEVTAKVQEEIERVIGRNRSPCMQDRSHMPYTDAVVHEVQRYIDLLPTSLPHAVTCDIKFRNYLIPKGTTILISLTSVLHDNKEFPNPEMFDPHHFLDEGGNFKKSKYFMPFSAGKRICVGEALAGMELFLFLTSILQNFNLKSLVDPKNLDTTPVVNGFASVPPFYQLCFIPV
# Sodium channel protein type 9 subunit alpha, sequence (Q15858 whole entry): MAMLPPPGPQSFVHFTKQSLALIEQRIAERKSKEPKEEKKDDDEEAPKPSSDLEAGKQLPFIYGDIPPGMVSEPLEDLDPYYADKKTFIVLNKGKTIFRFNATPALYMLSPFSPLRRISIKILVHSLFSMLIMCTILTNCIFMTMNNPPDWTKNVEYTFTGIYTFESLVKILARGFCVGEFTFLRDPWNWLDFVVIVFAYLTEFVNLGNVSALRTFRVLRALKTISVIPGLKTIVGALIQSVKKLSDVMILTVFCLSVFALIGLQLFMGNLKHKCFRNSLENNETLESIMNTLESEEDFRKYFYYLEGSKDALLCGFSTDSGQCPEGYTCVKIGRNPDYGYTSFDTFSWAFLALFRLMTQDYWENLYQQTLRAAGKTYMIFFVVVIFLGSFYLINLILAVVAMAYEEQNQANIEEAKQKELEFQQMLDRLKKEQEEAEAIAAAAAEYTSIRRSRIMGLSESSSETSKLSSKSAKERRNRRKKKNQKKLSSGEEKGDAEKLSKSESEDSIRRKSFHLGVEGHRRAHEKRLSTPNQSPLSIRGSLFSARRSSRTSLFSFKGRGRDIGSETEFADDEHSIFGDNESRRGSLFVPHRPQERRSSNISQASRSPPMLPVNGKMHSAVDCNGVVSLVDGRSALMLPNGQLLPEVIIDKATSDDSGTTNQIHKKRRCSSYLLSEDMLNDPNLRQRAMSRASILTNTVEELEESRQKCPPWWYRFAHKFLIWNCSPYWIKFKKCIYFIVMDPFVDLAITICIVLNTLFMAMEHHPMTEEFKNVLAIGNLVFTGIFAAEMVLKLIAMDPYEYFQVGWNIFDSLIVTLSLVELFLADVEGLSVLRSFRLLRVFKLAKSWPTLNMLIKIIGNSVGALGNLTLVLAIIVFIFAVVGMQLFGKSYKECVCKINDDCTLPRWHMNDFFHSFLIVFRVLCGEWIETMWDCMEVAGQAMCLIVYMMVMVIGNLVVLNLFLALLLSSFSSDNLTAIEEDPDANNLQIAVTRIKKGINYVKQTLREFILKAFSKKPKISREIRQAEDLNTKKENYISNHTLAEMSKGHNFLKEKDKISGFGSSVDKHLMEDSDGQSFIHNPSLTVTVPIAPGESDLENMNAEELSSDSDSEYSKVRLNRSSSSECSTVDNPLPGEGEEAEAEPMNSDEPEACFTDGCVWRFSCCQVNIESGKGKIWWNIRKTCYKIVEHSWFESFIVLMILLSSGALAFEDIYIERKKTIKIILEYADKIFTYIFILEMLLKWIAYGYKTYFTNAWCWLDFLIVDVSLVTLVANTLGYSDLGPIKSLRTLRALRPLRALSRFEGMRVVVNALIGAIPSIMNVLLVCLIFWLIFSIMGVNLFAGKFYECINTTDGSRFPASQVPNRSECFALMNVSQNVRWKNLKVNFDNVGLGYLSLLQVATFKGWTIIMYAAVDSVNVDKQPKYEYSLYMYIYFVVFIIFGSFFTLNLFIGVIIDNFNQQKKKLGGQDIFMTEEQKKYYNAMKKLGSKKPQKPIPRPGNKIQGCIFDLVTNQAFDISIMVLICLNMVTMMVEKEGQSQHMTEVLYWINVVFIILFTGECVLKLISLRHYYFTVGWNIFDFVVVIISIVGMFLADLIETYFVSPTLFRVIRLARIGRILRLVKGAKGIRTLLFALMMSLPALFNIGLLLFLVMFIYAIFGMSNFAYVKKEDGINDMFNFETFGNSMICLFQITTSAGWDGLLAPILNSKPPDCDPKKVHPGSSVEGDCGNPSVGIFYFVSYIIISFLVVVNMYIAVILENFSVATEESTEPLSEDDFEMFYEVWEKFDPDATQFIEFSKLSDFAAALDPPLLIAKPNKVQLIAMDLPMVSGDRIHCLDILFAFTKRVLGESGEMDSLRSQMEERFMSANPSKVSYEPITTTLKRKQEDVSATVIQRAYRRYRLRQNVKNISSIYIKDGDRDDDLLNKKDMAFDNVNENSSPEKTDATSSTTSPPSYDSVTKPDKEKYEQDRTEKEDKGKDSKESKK
# Cytochrome P450 2C19, sequence (P33261 whole entry): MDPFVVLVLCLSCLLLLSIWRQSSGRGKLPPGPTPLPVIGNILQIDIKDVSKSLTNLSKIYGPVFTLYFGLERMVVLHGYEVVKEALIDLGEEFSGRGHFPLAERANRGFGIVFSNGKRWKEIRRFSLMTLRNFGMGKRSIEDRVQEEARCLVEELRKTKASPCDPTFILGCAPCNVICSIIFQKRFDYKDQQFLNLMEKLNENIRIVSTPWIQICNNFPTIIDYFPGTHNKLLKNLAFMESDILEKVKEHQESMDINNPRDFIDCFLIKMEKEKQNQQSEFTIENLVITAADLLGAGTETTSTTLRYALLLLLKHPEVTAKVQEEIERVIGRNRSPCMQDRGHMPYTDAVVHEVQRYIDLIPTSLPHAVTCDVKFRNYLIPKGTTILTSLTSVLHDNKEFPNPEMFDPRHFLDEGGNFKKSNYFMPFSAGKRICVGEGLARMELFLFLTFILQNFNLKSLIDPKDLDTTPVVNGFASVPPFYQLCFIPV
smiles,measurement,setting,value
CCN[C@@H]1CCC=C(c2ccc(F)cc2)[C@H]1CSc1cc(F)c(S(=O)(=O)Nc2cscn2)cc1Cl,IC50,[1],100 nM
O=S(=O)(Nc1cscn1)c1cc(Cl)c(OC[C@@H]2C(c3ccc(F)cc3)=CCC[C@H]2N2CCC2)cc1F (racemic),IC50,[1],1150 nM
O=S(=O)(Nc1cscn1)c1cc(Cl)c(OC[C@@H]2C(c3ccc(F)cc3)=CCC[C@H]2n2cnnc2)cc1F (racemic),IC50,[1],770 nM
Cl.N[C@@H]1CCC=C(c2ccc(F)cc2)[C@H]1COc1cc(F)c(S(=O)(=O)Nc2nccs2)cc1Cl (racemic),IC50,Cytochrome P450 1A2,> 50000 nM
same,IC50,[1],2 nM
same,Vd,[2],3.26 L/kg
same,clearance,[3],29 mL/min/kg
same,IC50,Cytochrome P450 3A4,> 50000 nM
same,IC50,Cytochrome P450 2C19,8000 nM
same,bioavailability,[4],0.3%
same,AUC,[5],0.03 µM·h
same,IC50,Cytochrome P450 2C9,100 nM
same,IC50,Cytochrome P450 2D6,18000 nM
CN[C@@H]1CCC=C(c2ccc(F)cc2)[C@H]1COc1cc(F)c(S(=O)(=O)Nc2cscn2)cc1Cl.Cl (racemic),IC50,[1],170 nM
same,"efflux ratio at 2 h, 2 µM",in vitro [6],127
same,Kp at 2 h,[7],0.04
same,"Papp A→B at 2 h, 2 µM",in vitro [8],0.2 ×10⁻⁶ cm/s
Cl.N[C@@H]1CCC=C(c2ccc(F)cc2)[C@H]1CSc1cc(F)c(S(=O)(=O)Nc2nccs2)cc1Cl,bioavailability,[9],14%
same,IC50,Cytochrome P450 1A2,> 50000 nM
same,IC50,[1],5 nM
same,Vd,[2],6.05 L/kg
same,clearance,[3],46.5 mL/min/kg
same,IC50,Cytochrome P450 3A4,5100 nM
same,IC50,Cytochrome P450 2C19,3300 nM
same,AUC,[10],0.17 µM·h
same,IC50,Cytochrome P450 2C9,100 nM
same,IC50,Cytochrome P450 2D6,18000 nM
O=S(=O)(Nc1cscn1)c1cc(Cl)c(OC[C@@H]2C(c3ccc(F)cc3)=CCC[C@H]2n2ccnc2)cc1F (racemic),IC50,[1],2340 nM
CN(C)[C@@H]1CCC=C(c2ccc(F)cc2)[C@H]1COc1cc(F)c(S(=O)(=O)Nc2cscn2)cc1Cl.Cl (racemic),IC50,[1],14 nM
same,"efflux ratio at 2 h, 2 µM",in vitro [6],1.8
same,Kp at 2 h,[7],0.6
same,"Papp A→B at 2 h, 2 µM",in vitro [8],10 ×10⁻⁶ cm/s
CCN(CC)[C@@H]1CCC=C(c2ccc(F)cc2)[C@H]1COc1cc(F)c(S(=O)(=O)Nc2cscn2)cc1Cl (racemic),IC50,[1],310 nM
CCN[C@@H]1CCC=C(c2ccc(F)cc2)[C@H]1CNc1cc(F)c(S(=O)(=O)Nc2nccs2)cc1Cl.Cl,bioavailability,[9],14%
same,IC50,Cytochrome P450 1A2,> 50000 nM
same,IC50,[1],6 nM
same,Vd,[2],3.07 L/kg
same,clearance,[3],27.5 mL/min/kg
same,IC50,Cytochrome P450 3A4,16500 nM
same,IC50,Cytochrome P450 2C19,2100 nM
same,AUC,[10],0.29 µM·h
same,IC50,Cytochrome P450 2C9,200 nM
same,IC50,Cytochrome P450 2D6,14100 nM
CC(C)N[C@@H]1CCC=C(c2ccc(F)cc2)[C@H]1COc1cc(F)c(S(=O)(=O)Nc2cscn2)cc1Cl.Cl (racemic),IC50,[1],94 nM
same,"efflux ratio at 2 h, 2 µM",in vitro [6],37
same,Kp at 2 h,[7],0.08
same,"Papp A→B at 2 h, 2 µM",in vitro [8],1.1 ×10⁻⁶ cm/s
CCN[C@@H]1CCC=C(c2ccc(F)cc2)[C@H]1COc1cc(F)c(S(=O)(=O)Nc2cscn2)cc1Cl.Cl (racemic),IC50,[1],59 nM
same,"efflux ratio at 2 h, 2 µM",in vitro [6],70
same,Kp at 2 h,[7],0.08
same,"Papp A→B at 2 h, 2 µM",in vitro [8],0.4 ×10⁻⁶ cm/s
Cl.N[C@@H]1CCC=C(c2ccc(F)cc2)[C@H]1CSc1cc(F)c(S(=O)(=O)Nc2cscn2)cc1Cl,bioavailability,[9],27%
same,IC50,[1],59 nM
same,Vd,[2],3.22 L/kg
same,clearance,[3],26.1 mL/min/kg
same,AUC,[10],0.62 µM·h
Cl.N[C@@H]1CCC=C(c2ccc(F)cc2)[C@H]1CNc1cc(F)c(S(=O)(=O)Nc2nccs2)cc1Cl,bioavailability,[9],3%
same,IC50,Cytochrome P450 1A2,> 50000 nM
same,IC50,[1],33 nM
same,Vd,[2],4.24 L/kg
same,clearance,[3],44.2 mL/min/kg
same,IC50,Cytochrome P450 3A4,> 50000 nM
same,IC50,Cytochrome P450 2C19,5600 nM
same,AUC,[10],0.04 µM·h
same,IC50,Cytochrome P450 2C9,500 nM
same,IC50,Cytochrome P450 2D6,42600 nM
CCN[C@@H]1CCC=C(c2ccc(F)cc2)[C@H]1CNc1cc(F)c(S(=O)(=O)Nc2cscn2)cc1Cl,IC50,[1],200 nM
CCN[C@@H]1CCC=C(c2ccc(F)cc2)[C@H]1COc1cc(F)c(S(=O)(=O)Nc2cscn2)cc1Cl,Ratio IC50,Homo sapiens [11],> 30
same,inhibition,Rattus norvegicus [12],Active
same,inhibition,Rattus norvegicus [13],inactive
same,Activity,Rattus norvegicus [14],Active
same,Ratio IC50,Homo sapiens [15],> 30
same,Activity,Rattus norvegicus [16],inactive
CCN[C@@H]1CCC=C(c2ccc(F)cc2)[C@H]1COc1cc(F)c(S(=O)(=O)Nc2nccs2)cc1Cl.Cl (racemic),IC50,Cytochrome P450 1A2,> 50000 nM
same,IC50,[1],48 nM
same,Vd,[2],6.21 L/kg
same,clearance,[3],66.6 mL/min/kg
same,IC50,Cytochrome P450 3A4,21600 nM
same,IC50,Cytochrome P450 2C19,1500 nM
same,bioavailability,[4],3%
same,AUC,[5],0.12 µM·h
same,IC50,Cytochrome P450 2C9,200 nM
same,IC50,Cytochrome P450 2D6,4500 nM
CC(=O)N[C@@H]1CCC=C(c2ccc(F)cc2)[C@H]1COc1cc(F)c(S(=O)(=O)Nc2cscn2)cc1Cl (racemic),IC50,[1],510 nM
